The target in assay [1] is T1, catechol O-methyl transferase (COMT) (Homo sapiens, UniProt P21964).
T1 construct: endogenous COMT in MCF-7 whole cell lysate
T1 sequence (P21964 1-271): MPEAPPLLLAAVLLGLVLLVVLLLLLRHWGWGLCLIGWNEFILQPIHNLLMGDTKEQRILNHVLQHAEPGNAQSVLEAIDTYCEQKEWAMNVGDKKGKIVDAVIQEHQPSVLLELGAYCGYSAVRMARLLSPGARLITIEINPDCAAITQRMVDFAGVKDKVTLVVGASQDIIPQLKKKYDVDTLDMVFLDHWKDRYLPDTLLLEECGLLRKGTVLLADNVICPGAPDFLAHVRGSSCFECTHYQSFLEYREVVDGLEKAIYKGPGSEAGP
The experiment in a line: 4-MeOE2 formation in MCF-7 cells/lysate; […] decrease at […]. Format: cell-based. The settings on record: MCF7.

Assay [2] addresses T2, catechol O-methyl transferase (COMT) (Homo sapiens, UniProt P21964).
T2 construct: recombinant human soluble COMT, hexahistidine-tagged
T2 sequence (P21964 51-271 limits assumed): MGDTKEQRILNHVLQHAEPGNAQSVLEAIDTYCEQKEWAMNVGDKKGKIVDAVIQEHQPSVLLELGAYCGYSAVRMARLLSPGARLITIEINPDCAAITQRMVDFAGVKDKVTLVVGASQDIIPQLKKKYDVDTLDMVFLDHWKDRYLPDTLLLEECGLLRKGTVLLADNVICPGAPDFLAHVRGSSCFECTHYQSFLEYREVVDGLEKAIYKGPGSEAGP
Put plainly: inhibition of recombinant COMT O-methylation of 4-OHE2 by HPLC-DAD (IC50 […]); also a substrate (Km […]). Format: biochemical.

Turning to `O=C(c1cc(O)c(O)c([N+](=O)[O-])c1)c1ccccc1F` [Ro 41-0960], in assay [1], the inhibition at 10 µM was determined as 88%.

Consider `C[C@H](Cc1ccc(O)c(O)c1)[C@H](C)Cc1ccc(O)c(O)c1` [compound 1, 4-[4-(3,4-dihydroxyphenyl)-2,3-dimethylbutyl] benzene-1,2-diol], for which, in assay [2], the Ki came out at 15.7 µM.

(Values after paper PMC8038350, “Nordihydroguaiaretic Acid as a Novel Substrate and Inhibitor of Catechol O-Methyltransferase Modulates 4-Hydroxyestradiol-Induced Cyto- and Genotoxicity in MCF-7 Cells” (Molecules, 2021).)
